Read-outs that look alike come from different tables or passages of the source.
How the values were obtained:
[1] = test system: A549; test: MTT test, overall cell growth; format: cell-based, human; details: 72 hours of incubation
Protocol: (§1) In order to characterize the in vitro activities of the compounds according to the invention, MTT tests were carried out. The MTT test, which is a well-known test in the art, is an indirect technique that rapidly measures, i.e. within 5 days, the effect of a given product on the overall cell growth. This test measures the number of metabolically active living cells that are able to transform the MTT product (3-(4,5-dimethylthiazol-2-yl)-2,5 diphenyl tetrazolium bromide), having a yellowish color, to the blue product formazan dye by mitochondrial reduction. The amount of formazan obtained at the end of the experiment is measured with a spectrophotometer and is directly proportional to the number of living cells. Determination of the optical density enables a quantitative measurement of the effect of the investigated compounds as compared to the control condition (untreated cells) and to compare it to other reference compound. In the following examples different compounds according to the invention were tested and compared to the reference compound being uscharin.
(§2) Six human cancer cell lines, described in Table C, were tested in the presence of compounds according to the invention. These cell lines covered four histological cancer types, being Glioma, colon, lung and bladder cancer. The cells were allowed to grow in 96-well micro wells with a flat bottom with an amount of 100 μl of cell suspension per well in reason to 4000 cells/well depending on cell type. Each cell line was seeded in its own cell culture medium (Table C).
(§3) After a 24-hour period of incubation at 37° C., the culture medium is replaced by 100 μl of fresh medium in which the compound to be tested has been dissolved at different required concentrations. Different compounds were tested at 10^−9 M, 5×10^−9 M, 10^−8 M, 5×10^−8 M, 10^−7 M, 5×10^−7 M, 10^−6 M, 5×10^−6 M et 10^−5 M. Each experimental condition is carried out in hexaplicate. The compounds tested are 2″ oxo-voruscharin, and compounds B, C, D, E, H and I represented in Table B above.
(§4) After 72 hours of incubation at 37° C. with the compound (experimental conditions) or without the compound (control condition), the medium was replaced by 100 μl MTT at the concentration of 1 mg/ml dissolved in RPMI. The micro wells were subsequently incubated during 3 hours at 37° C. and centrifuged at 400 g during 10 minutes. The MTT was removed and formazan crystals formed, were dissolved in 100 μl DMSO. The micro wells were shaken for 5 minutes and read on a spectrophotometer at the wavelengths of 570 nm corresponding to the maximum formazan absorbance wavelength, and of 630 nm, which is the background noise wavelength.
(§5) For each experimental condition, the mean OD associated with the SEM (standard error of the mean) for each condition (6 wells) was calculated. The percentage of remaining living cells in comparison with the control was calculated. Results of these experiments are represented in FIGS. 2 to 8.

[2] = test system: HCT-15; test: MTT test, overall cell growth; format: cell-based, human
Protocol: as §1, §2, §3, §4, §5

[3] = test system: Hs683; test: MTT test, overall cell growth; format: cell-based, human
Protocol: as §1, §2, §3, §4, §5

[4] = test system: J82; test: MTT test, overall cell growth; format: cell-based, human
Protocol: as §1, §2, §3, §4, §5

[5] = test system: LoVo; test: MTT test, overall cell growth; format: cell-based, human; details: 72 hours of incubation
Protocol: as §1, §2, §3, §4, §5

[6] = test system: U-373 MG; test: MTT test, overall cell growth; format: cell-based, human; details: U-373, MTT, 72 hours of incubation
Protocol: as §1, §2, §3, §4, §5

[7] = Maximum Tolerated Dose in healthy mice; format: in vivo; details: single administration in mice, healthy animals, 14 days post-injection
Protocol: The Maximum Tolerated Dose (MTD) of a given drug is defined as the maximum amount of a drug which can be administered acutely (i.e. in one i.p., i.v., s.c. or per os single dose) to healthy animals, i.e. animals not grafted with tumors. The survival times and weights of the animals are recorded up to 14 days post-injection. Five different doses of each drug are used for the determination of the MTD index. When the MTD index is higher than 160 mg/kg (i.p. administration) the drug is usually considered to be non-toxic, and the highest dose administered to tumor-bearing mice is MTD/2=80 mg/kg. Each experimental group was composed of 3 mice for the determination of the MTD index.

[8] = test system: HCT-15 human cancer cells; test: Cell cycle kinetics by flow cytometry (propidium iodide); format: cell-based; parameters: key to Effect on cell cycle kinetics, G0/G1 / Effect on cell cycle kinetics, S / Effect on cell cycle kinetics, G2/M: n.s. means no significant; ** means highly significant; *** very highly significant
Protocol: (§6) Cell lines were seeded in flasks (25 cm^2 area) containing 7 ml of culture medium. After 48 hours incubation at 37° C. the cell culture medium was replaced by a fresh medium in which the substance to be tested had been dissolved at the different concentrations required. Uscharin and 2″ oxo-voruscharin were tested at concentrations, which kill 50% and 30% of the cell population, represented by the IC50 and IC30 values, respectively. After 24 or 72 hours of treatment the cells were harvested in suspension, washed in Phosphate Buffer Saline (PBS) at 4° C. and permeabilized with 70% ethanol (at 4° C.) overnight at −20° C. The cells were then washed with PBS and incubated with propidium iodide solution (80 μg/ml) for 30 minutes at 37° C. and afterward at 4° C. overnight. Ribonuclease A (3% V/V) was added to the PI solution to break doubled-stranded RNA. The portrait of the cell cycle was established for each sample. Software incorporated into the flow cytometer was used to define precisely the percentage of cells in the different cell cycle phases. Each cell cycle phase was reported in terms of peak surface and calculated as a percentage. The surface of the entire cell cycle was 100%. Each experiment was carried out 3 times. The mean percentage of each different phase and the standard error of the related mean were calculated. Each cell cycle phase of a given condition was compared with the same cell cycle phase of control. The non-treated cells constituted control.
(§7) Uscharin and 2″ oxo-voruscharin are highly toxic to human tumor cell lines. The concentrations used in the flow cytometry experiments were chosen in accordance with the MTT results (example 2). Three human cancer cell lines, Hs683, J82, and HCT-15 were tested and doses that killed 30 and 50 percent of the cells were applied to investigate whether uscharin and 2″ oxo-voruscharin promoted an accumulation in one of the cell cycle phases when the cell cultures were treated for 24 or 72 hours with increasing concentrations of the compounds. The IC50 and IC30 values for uscharin and 2″ oxo-voruscharin corresponding to the three tested cell lines are represented in Table E.

[9] = test system: Hs683 human cancer cells; test: as above; format: cell-based; parameters: key to Effect on cell cycle kinetics, G0/G1 / Effect on cell cycle kinetics, S / Effect on cell cycle kinetics, G2/M: n.s. means no significant; ** means highly significant; *** very highly significant
Protocol: as §6, §7

[10] = test system: J82 human cancer cells; test: as above; format: cell-based; parameters: key to Effect on cell cycle kinetics, G0/G1 / Effect on cell cycle kinetics, S / Effect on cell cycle kinetics, G2/M: n.s. means no significant; ** means highly significant; *** very highly significant
Protocol: as §6, §7

[11] = HCT-15, MTT, 72 hours of incubation, read-out: IC50 value
[12] = Hs683, MTT, 72 hours of incubation, read-out: IC50 value
[13] = J82, MTT, 72 hours of incubation, read-out: IC50 value

SMILES: CC(=O)OCC12CC3OC4(O)C(OC(C)CC45NC(=O)CS5)OC3CC1CCC1C2CCC2(C)C(C3=CC(=O)OC3)CCC12O (stereo not drawn) [Compound C]
- IC50 [1]: 1000 to 5000 nM
- IC50 [2, 11]: 1000 to 5000 nM
- IC50 [3, 12]: 1000 to 5000 nM
- IC50 [4, 13]: > 10 µM
- IC50 [5]: 1000 to 5000 nM
- IC50 [6]: 1000 to 5000 nM
- MTD index [7]: > 40 mg/kg

SMILES: CC1CC2(NC(CC(=O)c3ccccc3)CS2)C2(O)OC3CC4(CO)C(CCC5C4CCC4(C)C(C6=CC(=O)OC6)CCC54O)CC3OC2O1 (single isomer, unassigned) [Compound H]
- IC50 [1]: 1 to 5 nM
- IC50 [2, 11]: 10 to 50 nM
- IC50 [3, 12]: 1 to 5 nM
- IC50 [4, 13]: 1 to 5 µM
- IC50 [5]: 10 to 50 nM
- IC50 [6]: 10 to 50 nM
- MTD index [7]: 80 mg/kg

SMILES: C[C@@H]1CC2(N=CCS2)C2(O)O[C@@H]3C[C@]4(C=O)C5CC[C@]6(C)[C@@H](C7=CC(=O)OC7)CC[C@]6(O)[C@@H]5CC[C@H]4C[C@H]3O[C@@H]2O1 (stereo partly drawn) [uscharin]
- IC50 ([1]; Homo sapiens): 10 to 50 nM
- IC30 ([2]; HCT-15, Table E, concentration which kills 30% of the cell population): 8.5 nM
- IC50 ([2]; Homo sapiens, HCT-15, MTT, 72 hours of incubation, read-out: IC50 value): 10 to 50 nM
- IC50 ([2]; Homo sapiens, HCT-15, Table E, concentration used for flow cytometry, chosen in accordance with MTT results, read-out: IC50): 43 nM
- IC50 ([3]; Homo sapiens, Hs 683, Hs683, MTT, 72 hours of incubation, read-out: IC50 value): 1 to 5 nM
- IC50 ([3]; Homo sapiens, Hs 683, Hs683, Table E, concentration used for flow cytometry, chosen in accordance with MTT results, read-out: IC50): 170 nM
- IC30 ([3]; Hs683, Table E, concentration which kills 30% of the cell population): 43 nM
- IC50 ([4]; Homo sapiens, J82, MTT, 72 hours of incubation, read-out: IC50 value): 5 to 10 µM
- IC50 ([4]; Homo sapiens, J82, Table E, concentration used for flow cytometry, chosen in accordance with MTT results, read-out: IC50): 4.3 µM
- IC30 ([4]; J82, Table E, concentration which kills 30% of the cell population): 1.7 µM
- IC50 ([5]; Homo sapiens): 5 to 10 nM
- IC50 ([6]; Homo sapiens, U373 MG): 10 to 50 nM
- Effect on cell cycle kinetics, G0/G1 ([8]; HCT-15, 24 h): n.s.
- Effect on cell cycle kinetics, G2/M ([8]; HCT-15, 24 h): n.s.
- Effect on cell cycle kinetics, S ([8]; HCT-15, 24 h): n.s.
- Effect on cell cycle kinetics, G0/G1 ([8]; HCT-15, 72 h): n.s.
- Effect on cell cycle kinetics, G2/M ([8]; HCT-15, 72 h): n.s.
- Effect on cell cycle kinetics, S ([8]; HCT-15, 72 h): **
- cell cycle, S-phase ([8]; HCT-15, 72 hours, highest concentration tested (4.3×10^−8 M uscharin, 1.2×10^−8 M 2″oxo-voruscharin)): accumulation in S-phase
- cell cycle, S-phase ([9]; Hs683, 1.7×10^−7 M for 24 and 72 hours, statistically significant): accumulation of cells in S-phase
- cell cycle, G2/M-phase ([9]; Hs683, 1.7×10^−7 M for 24 hours): significant accumulation in G2/M-phase
- Effect on cell cycle kinetics, G0/G1 ([9]; Hs683, 24 h): n.s.
- Effect on cell cycle kinetics, G2/M ([9]; Hs683, 24 h): ***
- Effect on cell cycle kinetics, S ([9]; Hs683, 24 h): ***
- Effect on cell cycle kinetics, G0/G1 ([9]; Hs683, 72 h): n.s.
- Effect on cell cycle kinetics, G2/M ([9]; Hs683, 72 h): n.s.
- Effect on cell cycle kinetics, S ([9]; Hs683, 72 h): ***
- Effect on cell cycle kinetics, G0/G1 ([10]; J82, 24 h): n.s.
- Effect on cell cycle kinetics, G2/M ([10]; J82, 24 h): n.s.
- Effect on cell cycle kinetics, S ([10]; J82, 24 h): ***
- Effect on cell cycle kinetics, G0/G1 ([10]; J82, 72 h): n.s.
- Effect on cell cycle kinetics, G2/M ([10]; J82, 72 h): n.s.
- Effect on cell cycle kinetics, S ([10]; J82, 72 h): ***
- cell cycle, S-population ([10]; J82, independent of the concentrations applied or the timing of treatment): significant increase in the S-population

Reference: patent US7981875B2, “2″ oxo-voruscharin and derivatives thereof” (priority 2002, dated 2011)
